Laboratory results taken from US4699907A, “4-morpholinyl-1H-indoles, pharmaceutical compositions and use” (Roussel Uclaf, priority 1985, dated 1987).

Assays:
mice = test: Acute toxicity study; format: in vivo; settings: oral administration to mice
Description: The lethal doses LDO of the different compounds tested were evaluated after oral administration to mice.

enolase γγ = test: Test for enolase (kainic acid induced neuron lesions); format: in vivo; settings: mice; 1 mg/kg intraperitoneally one hour before 35 mg/kg sub-cutaneous kainic acid
hippocampus of the rat = test: Test for neuron activation (accumulation of 2-deoxyglucose-6-phosphate); format: in vivo; settings: 14C 2-deoxyglucose tracer dose
Description: C: Test for neuron activation
Neuron activation causes an increase in the corresponding metabolism which is shown by an increase in the consumption of glucose, a proof of energy consumption. This increase was evaluated by measuring the accumulation in the neuron cells of 2deoxyglucose-6-phosphate stemming from the conversion by hexokinase of 2-deoxyglucose ^14 C, an analogue of glucose, administered as a tracer dose, which used the same route of entry into the cell as glucose.

male rats = test: Test of labyrinth in T after partial lesion of the septo hippocampic route; format: in vivo, rat; settings: electrolytic partial septo-hippocampic lesion, 20 mg/kg orally, 1 hour before test, days +5 to +8, compared to untreated animals
Description: A: Test of labyrinth in T after partial lesion of the septo hippocampic route
By means of an electrolytic partial lesion of neurons of the septo-hippocampic route, a disfunction of the cognitive faculty was provoked in male rats having acquired an apprenticeship in a labyrinth in the form of a T and then the speed of recovery of the disturbed memory faculties was measured. The animals got accustomed to their new environment on days -9 to -6 and rested on days -5 and -4. Their apprenticeship was carried out on days -3 to 0. At this time, the response of the rats was positive at 75-80%. On day 0, the lesion was carried out and the animals rested on days +1 to +3. The animals were tested on day +4 and at this time, only 50% of the responses were positive. From day +5 to +8, the rats were tested after being treated orally with the products under test 1 hour earlier. On day +11, the rats were tested without treatment. The percentage of positive responses of the treated animals were compared in relation to the untreated animals.

Row | Compound | LDO (maximum dose which does not cause mortality in 8 days) (mice) [mg/kg] | decrease of the serous concentration of enolase γγ (enolase γγ) [%] | accumulation of 2-deoxyglucose 6-P in the hippocampus (hippocampus of the rat) | recovery of the memory functions (male rats)
1 | N,N-diethyl 6-(1H-indol-4-yl)-4-methyl-2-morpholine carboxamide [Example 2] | ≥ 200 | – | – | –
2 | CN1C[C@H](CC#N)O[C@H](c2cccc3[nH]ccc23)C1 (relative stereo) [Example 5, (2SR, 6RS) 6-(1H-indol-4-yl)-4-methyl-2-morpholine acetonitrile] | ≥ 200 | – | – | –
3 | CN1C[C@H](CO)O[C@H](c2cccc3[nH]ccc23)C1 (relative stereo) [Example 3, (2RS, 6RS) 6-(1H-indol-4-yl)-4-methyl-2-morpholine methanol] | ≥ 400 | – | – | –
4 | CSC[C@H]1CN(C)C[C@@H](c2cccc3[nH]ccc23)O1 (relative stereo) [Example 4, 4-[(2R-cis) 4-methyl-6-[(methylthio)methyl]-2-morpholinyl]-1H-indole (dl)] | 200 | 34 | increase in the accumulation of 2-deoxyglucose 6-P | significantly improved the recovery of the memory functions
